Experiments:
[1] = target: T1, Peptidyl-prolyl cis-trans isomerase FKBP4 (Homo sapiens, UniProt Q02790); assay: Binding affinity to FKBP52 FK1 domain by competitive fluorescence polarization assay
T1 sequence (Q02790 whole entry): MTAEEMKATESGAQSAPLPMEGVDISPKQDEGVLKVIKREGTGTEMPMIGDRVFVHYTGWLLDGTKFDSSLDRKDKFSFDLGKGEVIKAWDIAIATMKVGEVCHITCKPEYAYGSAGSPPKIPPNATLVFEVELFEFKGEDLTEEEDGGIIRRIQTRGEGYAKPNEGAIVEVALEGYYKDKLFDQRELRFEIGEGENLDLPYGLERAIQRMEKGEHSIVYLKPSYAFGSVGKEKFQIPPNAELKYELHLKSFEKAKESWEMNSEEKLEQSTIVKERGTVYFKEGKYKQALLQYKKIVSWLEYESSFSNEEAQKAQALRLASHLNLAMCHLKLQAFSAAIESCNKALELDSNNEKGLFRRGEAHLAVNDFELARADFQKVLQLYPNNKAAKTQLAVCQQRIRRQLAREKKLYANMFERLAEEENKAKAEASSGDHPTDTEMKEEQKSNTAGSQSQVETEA

[2] = target: Peptidyl-prolyl cis-trans isomerase FKBP1A (Homo sapiens, UniProt P62942); assay: Binding affinity to FKBP12 by competitive fluorescence polarization assay
Chain of Peptidyl-prolyl cis-trans isomerase FKBP1A (P62942 whole entry, the tested form may be a part): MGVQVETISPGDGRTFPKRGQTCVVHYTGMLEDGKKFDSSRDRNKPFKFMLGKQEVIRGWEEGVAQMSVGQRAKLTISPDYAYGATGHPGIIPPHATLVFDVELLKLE

[3] = target: T2, Peptidyl-prolyl cis-trans isomerase FKBP5 (Homo sapiens, UniProt Q13451); assay: Binding affinity to FKBP51 FK1 domain by competitive fluorescence polarization assay
T2 sequence (Q13451 whole entry): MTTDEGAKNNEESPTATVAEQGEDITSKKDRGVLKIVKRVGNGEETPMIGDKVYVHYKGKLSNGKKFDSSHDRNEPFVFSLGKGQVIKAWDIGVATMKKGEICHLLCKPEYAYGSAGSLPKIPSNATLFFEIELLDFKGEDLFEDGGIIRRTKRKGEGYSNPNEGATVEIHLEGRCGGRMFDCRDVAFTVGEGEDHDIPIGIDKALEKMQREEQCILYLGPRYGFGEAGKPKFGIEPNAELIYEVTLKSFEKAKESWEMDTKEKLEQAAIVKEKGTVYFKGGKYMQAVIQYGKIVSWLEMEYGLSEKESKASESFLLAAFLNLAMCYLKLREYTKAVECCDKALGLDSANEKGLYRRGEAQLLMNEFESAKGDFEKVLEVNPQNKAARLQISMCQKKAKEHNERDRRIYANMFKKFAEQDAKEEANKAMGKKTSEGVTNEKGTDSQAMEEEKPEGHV

| IC50 ([1]; read-out: IC50) [µM] | IC50 ([2]; read-out: IC50) [nM] | IC50 ([3]; read-out: IC50) [µM] | IC50 [1] | IC50 [2] | IC50 [3] | SMILES |
| --- | --- | --- | --- | --- | --- | --- |
| > 100 | 4500 | > 100 | – | – | – | COC(=O)c1cc(C(=O)OC)cc(S(=O)(=O)N2CCCC[C@H]2C(=O)O[C@H](CCc2ccc(OC)c(OC)c2)c2cccc(OCC(=O)O)c2)c1 |
| > 100 | 1800 | – | – | – | – | COc1ccc(CC[C@@H](OC(=O)[C@@H]2CCCCN2S(=O)(=O)c2ccc(-c3ncccn3)cc2)c2cccc(OCC(=O)O)c2)cc1OC |
| – | 1200 | – | – | – | – | COc1ccc(CC[C@@H](OC(=O)[C@@H]2CCCCN2S(=O)(=O)c2cccc(Cl)c2)c2cccc(OCC(=O)O)c2)cc1OC |
| 32.5 | 1100 | 11.6 | – | – | – | COc1ccc(CC[C@@H](OC(=O)[C@@H]2CCCCN2S(=O)(=O)c2ccc3ncsc3c2)c2cccc(OCC(=O)O)c2)cc1OC |
| > 100 | 10100 | > 100 | – | – | – | COc1ccc(CC[C@@H](OC(=O)[C@@H]2CCCCN2S(=O)(=O)c2ccoc2)c2cccc(OCC(=O)O)c2)cc1OC |
| > 100 | 4600 | – | – | – | – | COc1ccc(CC[C@@H](OC(=O)[C@@H]2CCCCN2S(=O)(=O)c2cc3ccccc3s2)c2cccc(OCC(=O)O)c2)cc1OC |
| 69.9 | 3800 | 28.5 | – | – | – | COc1ccc(CC[C@@H](OC(=O)[C@@H]2CCCCN2S(=O)(=O)c2cccc(C#N)c2)c2cccc(OCC(=O)O)c2)cc1OC |
| > 100 | 1900 | 47.2 | – | – | – | COc1ccc(CC[C@@H](OC(=O)[C@@H]2CCCCN2S(=O)(=O)c2cccc([N+](=O)[O-])c2)c2cccc(OCC(=O)O)c2)cc1OC |
| > 100 | 1900 | 45.4 | – | – | – | COc1ccc(CC[C@@H](OC(=O)[C@@H]2CCCCN2S(=O)(=O)c2cccc(N)c2)c2cccc(OCC(=O)O)c2)cc1OC |
| > 100 | 8100 | > 100 | – | – | – | COc1ccc(CC[C@@H](OC(=O)[C@@H]2CCCCN2S(=O)(=O)c2cccc(-c3ccnc(C)n3)c2)c2cccc(OCC(=O)O)c2)cc1OC |
| > 100 | 9100 | > 100 | – | – | – | COc1ccc(CC[C@@H](OC(=O)[C@@H]2CCCCN2S(=O)(=O)c2cccc(-c3ccncn3)c2)c2cccc(OCC(=O)O)c2)cc1OC |
| 84.5 | 1090 | 54 | – | – | – | COc1ccc(CC[C@@H](OC(=O)[C@@H]2CCCCN2S(=O)(=O)c2cccc(F)c2)c2cccc(OCC(=O)O)c2)cc1OC |
| 15.7 | 320 | 15.8 | – | – | – | COc1ccc(CC[C@@H](OC(=O)[C@@H]2CCCCN2S(=O)(=O)c2cccc(Br)c2)c2cccc(OCC(=O)O)c2)cc1OC |
| – | 800 | – | – | – | – | COc1ccc(CC[C@@H](OC(=O)[C@@H]2CCCCN2S(=O)(=O)c2cc(Cl)cc(Cl)c2)c2cccc(OCC(=O)O)c2)cc1OC |
| > 100 | 6100 | > 100 | – | – | – | COc1ccc(CC[C@@H](OC(=O)[C@@H]2CCCCN2S(=O)(=O)c2ccc(Cl)c(Cl)c2)c2cccc(OCC(=O)O)c2)cc1OC |
| > 100 | 7600 | > 100 | – | – | – | COc1ccc(CC[C@@H](OC(=O)[C@@H]2CCCCN2S(=O)(=O)c2ccc(OC)c(OC)c2)c2cccc(OCC(=O)O)c2)cc1OC |
| 40.3 | 600 | 29.6 | – | – | – | COc1ccc(S(=O)(=O)N2CCCC[C@H]2C(=O)O[C@H](CCc2ccc(OC)c(OC)c2)c2cccc(OCC(=O)O)c2)cc1Cl |
| – | 1000 | 88.2 | – | – | – | COc1ccc(CC[C@@H](OC(=O)[C@@H]2CCCCN2S(=O)(=O)c2cc(F)cc(F)c2)c2cccc(OCC(=O)O)c2)cc1OC |
| > 100 | 5100 | > 100 | – | – | – | COc1ccc(CC[C@@H](OC(=O)[C@@H]2CCCCN2S(=O)(=O)c2cc(C(F)(F)F)cc(C(F)(F)F)c2)c2cccc(OCC(=O)O)c2)cc1OC |
| > 100 | 2400 | > 100 | – | – | – | COc1ccc(CC[C@@H](OC(=O)[C@@H]2CCCCN2S(=O)(=O)c2cc(Br)cc(C(F)(F)F)c2)c2cccc(OCC(=O)O)c2)cc1OC |
| 20.3 | 670 | 6.2 | – | – | – | COc1ccc(CC[C@@H](OC(=O)[C@@H]2CCCCN2S(=O)(=O)c2cc(Cl)c(O)c(Cl)c2)c2cccc(OCC(=O)O)c2)cc1OC |

| IC50 ([1]; read-out: IC50) [µM] | IC50 ([2]; read-out: IC50) [nM] | IC50 ([3]; read-out: IC50) [µM] | IC50 [1] | IC50 [2] | IC50 [3] | SMILES |
| --- | --- | --- | --- | --- | --- | --- |
| – | 230 | – | – | – | – | COc1ccc(CC[C@@H](OC(=O)[C@@H]2CCCCN2S(=O)(=O)c2cc(Cl)c(OC)c(Cl)c2)c2cccc(OCC(=O)O)c2)cc1OC |
| 20.5 | 1180 | 16.1 | – | – | – | COc1ccc(CC[C@@H](OC(=O)[C@@H]2CCCCN2S(=O)(=O)c2cc(Cl)c(NC(C)=O)c(Cl)c2)c2cccc(OCC(=O)O)c2)cc1OC |
| – | – | – | Not Active | Not Active | Not Active | COc1ccc(CC[C@@H](OC(=O)[C@@H]2CCCCN2S(=O)(=O)c2cc(OC)c(OC)c(C(=O)O)c2)c2cccc(OCC(=O)O)c2)cc1OC |
| – | 1500 | – | – | – | – | COc1ccc(CC[C@@H](OC(=O)[C@@H]2CCCCN2S(=O)(=O)c2cc3c(c([N+](=O)[O-])c2)OCC3)c2cccc(OCC(=O)O)c2)cc1OC |
| > 100 | 2570 | > 100 | – | – | – | COc1ccc(CC[C@@H](OC(=O)[C@@H]2CCCCN2S(=O)(=O)c2cc(N)c3c(c2)CCO3)c2cccc(OCC(=O)O)c2)cc1OC |
| – | 1200 | – | – | – | – | COc1ccc(CC[C@@H](OC(=O)[C@@H]2CCCCN2S(=O)(=O)c2ccc3nc(C)sc3c2)c2cccc(OCC(=O)O)c2)cc1OC |
| – | 21 | – | – | – | – | COc1ccc(CC[C@@H](OC(=O)[C@@H]2CCCCN2S(=O)(=O)c2ccc3[nH]c(=O)sc3c2)c2cccc(OCC(=O)O)c2)cc1OC |
| > 100 | 660 | > 100 | – | – | – | COc1ccc(CC[C@@H](OC(=O)[C@@H]2CCCCN2S(=O)(=O)c2ccc3c(c2)CC(=O)N3)c2cccc(OCC(=O)O)c2)cc1OC |
| > 100 | 750 | > 100 | – | – | – | COc1ccc(CC[C@@H](OC(=O)[C@@H]2CCCCN2S(=O)(=O)c2ccc3[nH]c(=O)oc3c2)c2cccc(OCC(=O)O)c2)cc1OC |
| > 100 | > 100000 | > 100 | – | – | – | COc1ccc(OCCOC(=O)[C@@H]2CCCCN2S(=O)(=O)c2cc(Cl)cc(Cl)c2)cc1OC |
| > 100 | 200 | 66.3 | – | – | – | COc1ccc(OCCOC(=O)[C@@H]2CCCCN2S(=O)(=O)c2ccc3ncsc3c2)cc1OC |
| > 50 | > 50000 | > 50 | – | – | – | COc1ccc(CC[C@@H](OC(=O)[C@@H]2CCCCN2S(=O)(=O)c2cc(Cl)cc(Cl)c2)c2cccc(OCCN3CCOCC3)c2)cc1OC |
| > 50 | > 50000 | > 50 | – | – | – | COc1ccc(CC[C@@H](OC(=O)[C@@H]2CCCCN2S(=O)(=O)c2ccc3ncsc3c2)c2cccc(OCCN3CCOCC3)c2)cc1OC |
| – | 115 | – | – | – | – | COc1ccc(CC[C@@H](OC(=O)[C@@H]2CCCCN2S(=O)(=O)c2cc(Cl)c(O)c(Cl)c2)c2cccc(OCCN3CCOCC3)c2)cc1OC |
| > 50 | > 50000 | > 50 | – | – | – | COc1ccc(CC[C@@H](OC(=O)[C@@H]2CCCCN2S(=O)(=O)c2cc(Cl)c(OC)c(Cl)c2)c2cccc(OCCN3CCOCC3)c2)cc1OC |
| 3.41 | 3 | 2.03 | – | – | – | COc1ccc(CC[C@@H](OC(=O)[C@@H]2CCCCN2S(=O)(=O)c2ccc3[nH]c(=O)sc3c2)c2cccc(OCCN3CCOCC3)c2)cc1OC |
| – | 450 | – | – | – | – | COc1ccc(CC[C@@H](OC(=O)[C@@H]2CCCCN2S(=O)(=O)c2cc(Cl)c(NC(C)=O)c(Cl)c2)c2cccc(OCCN3CCOCC3)c2)cc1OC |
| > 100 | > 100000 | > 100 | – | – | – | COc1ccc(CC[C@@H](NC(=O)[C@@H]2CCCCN2S(=O)(=O)c2cc(Cl)c(O)c(Cl)c2)c2cccc(OCC(=O)O)c2)cc1OC |
| > 100 | 1400 | > 100 | – | – | – | COc1ccc(CC[C@@H](NC(=O)[C@@H]2CCCCN2S(=O)(=O)c2ccc3[nH]c(=O)sc3c2)c2cccc(OCC(=O)O)c2)cc1OC |
| 15.1 | 870 | 9.69 | – | – | – | O=C(OC(CCCc1cccnc1)CCCc1cccnc1)[C@@H]1CCCCN1S(=O)(=O)c1cc(Cl)c(O)c(Cl)c1 |
| 9.37 | 114 | 6.3 | – | – | – | CCC(C)(C)C(=O)C(=O)N1CCCC[C@H]1C(=O)O[C@H](CCc1ccc(OC)c(OC)c1)c1cccc(OCC(=O)O)c1 |

From ChEMBL document CHEMBL2057077, “Exploration of pipecolate sulfonamides as binders of the FK506-binding proteins 51 and 52” (J Med Chem, 2012)
